SMILES strings stand for the structures.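 Five concentrations, 48 hours, 96-well plates. The concentration for 50% growth inhibition is given as GI50. TGI is the concentration that stops growth completely.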 A value given as a limit tells only on which side of the number the result lay.

Common to all, as to experiment: DTP human tumour cell line panel, 48 h
For experiment [1], the system named is EKVX NSCLC.
Experiment [2] deals with U251 CNS.
In experiment [3] the test system is MALME-3M melanoma.
For experiment [4], the system named is SR leukemia.
Experiment [5] has as its system M14 melanoma.
Experiment [6] deals with SK-MEL-28 melanoma.
Experiment [7] concerns DU-145 prostate.
For experiment [8], the system named is T-47D breast.
In experiment [9] the test system is HS 578T breast.
For experiment [10], the system named is MDA-MB-435.

As for `O=C1NC2(CCCCCC2)C2CCCCCCC12O` (configuration not stated), the total growth inhibition concentration (TGI) in experiment [1], in [2], in [3], in experiment [4], in experiment [5] and in [6] was > 100 µM throughout.

In the case of `Cc1cc2c(C)nn(Cc3ccccc3)c2c(C(N)=O)c1C`, the TGI in [1], in experiment [2], in experiment [3], in experiment [5] and in [6] was > 100 µM in each case.

In the case of `c1ccc(C(c2ccccc2)c2cccnc2)cc1`, the TGI in [1], in experiment [2], in experiment [3], in experiment [5] and in [6] was > 100 µM in each case.

For the compound `Cc1cc(NCCCCCCNc2cc(C)nc3cc(N(C)C)ccc23)c2ccc(N(C)C)cc2n1`, the TGI was > 100 µM in experiment [1]; > 100 µM in experiment [2]; 62.6 µM in experiment [3]; > 100 µM in [4]; > 100 µM in experiment [5]; > 100 µM in experiment [6].

As for `C1COCCN1.C1COCCN1.NC1CCCCC1N.[Cl-].[Pt+2]` (configuration not stated), the GI50 was > 100 µM in experiment [1]; > 100 µM in experiment [2]; 50.6 µM in experiment [3]; > 100 µM in experiment [5]; > 100 µM in [6]. Further, the concentration for total growth inhibition (TGI) in experiment [1], in experiment [2], in experiment [3], in experiment [5] and in experiment [6] was > 100 µM throughout.

As for `Cc1cc(C(=C2C=CC(=Nc3ccccc3)C=C2)c2ccc(Nc3ccccc3)cc2)ccc1N`, the GI50 in experiment [1] is 0.334 µM; in [7], 0.507 µM; in experiment [8] it was 0.527 µM; in experiment [2], 0.185 µM; in [3], 0.25 µM; in experiment [5], 0.286 µM. In experiment [6], the concentration for 50% growth inhibition (GI50) was 0.368 µM. Besides, the TGI in experiment [1] was 1.26 µM; in [7] it was 1.58 µM; in experiment [8] it was 1.93 µM; in experiment [2], 0.39 µM; in experiment [3], 0.777 µM; in experiment [5], 1.04 µM. In [6], this compound gave a TGI of 1.4 µM.

Turning to `CCOC1=C2C(=O)OC(=O)C2C2CCCCC2=C1` (configuration not stated), the total growth inhibition concentration (TGI) in experiment [1], in [2], in experiment [3], in [5] and in experiment [6] was > 100 µM each time.

For the compound `O=c1c2ccccc2c(=O)n2n1CC=CC2`, the concentration for total growth inhibition (TGI) in experiment [1], in experiment [2], in [3], in [5] and in [6] was > 100 µM throughout.

`CCCc1cc(=O)[nH]c(-n2nc(C)cc2C)n1`: the GI50 in [7] was 7.66 µM; in [9], 15 µM; in experiment [2], 1.71 µM; in experiment [4], 3.46 µM; in [5], 2.91 µM; in experiment [10] it was 4.67 µM. Also, the GI50 in experiment [6] is 3.8 µM. The TGI is > 100 µM in experiment [7]; > 100 µM in experiment [9]; > 100 µM in [2]; > 100 µM in experiment [4]; > 100 µM in experiment [5]; 32.4 µM in experiment [10]. Further, in [6], the TGI is 40.4 µM.

Regarding `CC(C)CCCC(C)[C@H]1CCC2[C@@H]3CCC4Nc5nocc5C[C@]4(C)C3CC[C@@]21C` (some centres not stated), the TGI in experiment [1] is 31.3 µM; in [2], 32 µM; in [3] it was 40.2 µM; in [5], 41.8 µM.

As to `N.N.N.N.N.[Cl-].[Co+3].c1ccc(-c2nn[n-]n2)cc1`, the GI50 in [1], in experiment [2], in experiment [3], in experiment [4], in [5] and in [6] was > 100 µM in each case. Moreover, the total growth inhibition concentration (TGI) in [1], in experiment [2], in experiment [3], in experiment [4], in experiment [5] and in experiment [6] was > 100 µM each time.

In the case of `COCC(O)Cn1ccnc1[N+](=O)[O-]` (configuration not stated), the TGI in [1], in experiment [2], in experiment [3], in [4], in experiment [5] and in experiment [6] was > 100 µM in each case.

On to `O=C1Nc2nc3ccccc3n2N=C2CCCC12` (configuration not stated), for which the TGI in [1], in [2], in experiment [3], in [5] and in experiment [6] was > 100 µM throughout.

Turning to `O=C1C2C3C=C4c5ccccc5N(c5ccccc5)C4(C2C(=O)N1c1ccc(Cl)cc1)[C@H]1C(=O)N(c2ccc(Cl)cc2)C(=O)[C@@H]31` (some centres not stated), the concentration for total growth inhibition (TGI) in experiment [1], in experiment [2], in experiment [3], in experiment [4] and in experiment [5] was > 100 µM each time.

`O=C(O/C(=C(/N=Nc1ccccc1)c1ccccc1)c1ccccc1)c1ccccc1`: the total growth inhibition concentration (TGI) in experiment [1], in experiment [2], in experiment [3], in experiment [4] and in experiment [6] was > 100 µM throughout.

On to `CCn1cc(C(=O)N/N=C/c2ccccc2)c(=O)c2cc(F)c(N3CCNC(C)C3)c(F)c21` (configuration not stated), for which the GI50 in [1] is 1.68 µM; in [7], 1.88 µM; in experiment [5], 1.78 µM; in [10], 1.91 µM; in experiment [6], 1.78 µM. In addition, the concentration for total growth inhibition (TGI) in experiment [1] was 3.09 µM; in experiment [7], 3.3 µM; in experiment [5], 3.26 µM; in experiment [10], 3.36 µM; in experiment [6], 3.19 µM.

Turning to `COc1cc([C@@H]2c3cc4c(cc3[C@@H](OC(=O)c3ccc(N)cc3)C3COC(=O)[C@@H]32)OCO4)cc(OC)c1O` (some centres not stated), the TGI in experiment [1] was > 95 µM; in experiment [2], 28.7 µM; in [3], 63.5 µM; in experiment [5] it was > 95 µM; in experiment [6] it was > 95 µM.

The record behind these values is PubChem BioAssay (NCI).
